Experimental findings from patent US20260199323A1, “LIGAND COMPOUNDS FOR E3 UBIQUITIN LIGASE, PROTEIN DEGRADERS DEVELOPED ON BASIS OF LIGAND COMPOUNDS, AND USES THEREOF” (GLUETACS THERAPEUTICS (SHANGHAI) CO., LTD., priority 2021, published 2026) are described below.

Where two headings read alike, the source gives them in different places.

One test relates to CCRF-CEM. The test can be described thus: CCK-8 tumor cell proliferation, CCRF-CEM. It is filed as cell-based, Human. The conditions noted are these: Homo sapiens, CCRF-CEM, read-out: IC50 inhibiting proliferation of tumor cells, CCRF-CEM. The procedure, abridged:
(§1)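 Using the CCK-8 kit, viability of plated cells is assessed after exposure to compound across ten concentrations (5-fold serial dilution, top 10 μM) added at 24 h. IC50 is obtained by curve fitting of growth inhibition.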

For the next test, the system named is HGC-27. Description: CCK-8 tumor cell proliferation, HGC-27. It is filed as cell-based, Human. The conditions noted are these: Homo sapiens; Table 18, FAK inhibitor based; HGC-27; read-out: IC50 inhibiting proliferation of tumor cells, HGC-27. As for the experimental part: (§2) The tumor cells used herein were cultured in a cell culture medium listed in table 4 at 37° C. in an incubator with 5% CO2. Prior to experimentation, all cells used were correctly identified by STR profiling, and tested negative for mycoplasma through routine screenings.
(§3) IC50 values of the compounds of the present disclosure (including the compounds in Tables 1 and 3, and compounds of examples) were measured using the Meilun Cell Counting Kit-8 kit from Dalian Meilun Biotech Co., Ltd. Assay details are as follows: tumor cells were seeded in a 96-well plate at a density listed in Table 5. After 24 h, 100 μL of the inoculated cells were treated with 0.5 μL of the compounds of the present disclosure (including the compounds in Tables 1 and 3, and compounds of examples) at 10 different successively decreasing concentrations (starting at the highest concentration of 10 μM; 5-fold serial dilutions). After the cells were treated with the compounds of the present disclosure for a period of time, the cell viability detection reagent was added to the culture medium for cell viability assessment according to the instructions provided with the CCK-8 kit. […] The growth inhibition of the compounds of the present disclosure on cells was plotted by Prism Graphpad software, and the IC50 values of the compounds of the present disclosure were calculated therefrom.

For another test, the system named is MDA-MB-231. Description: CCK-8 tumor cell proliferation, MDA-MB-231. It is filed as cell-based, Human. Particulars: Homo sapiens; Table 18, FAK inhibitor based; MDA-MB-231; read-out: IC50 inhibiting proliferation of tumor cells, MDA-MB-231. The procedure, abridged: as §1
The subject of a further test is SR. Description: CCK-8 tumor cell proliferation, SR. Particulars: Homo sapiens; Table 18, FAK inhibitor based; SR; read-out: IC50 inhibiting proliferation of tumor cells, SR. It is filed as cell-based, Human. The procedure, abridged:
as §1

The next test has as its system PC-9. The test can be described thus: CCK-8 tumor cell proliferation, PC-9. It is filed as cell-based, Human. Particulars: Homo sapiens; Table 18, FAK inhibitor based; PC-9; read-out: IC50 inhibiting proliferation of tumor cells, PC-9.
For another test, the system named is Mino. Description: CCK-8 tumor cell proliferation, Mino. It is filed as cell-based, Human. Particulars: Homo sapiens; Table 18, FAK inhibitor based; Mino; read-out: IC50 inhibiting proliferation of tumor cells, Mino. The procedure, abridged:
as §1

In a further test the test system is SW620. The test can be described thus: CCK-8 tumor cell proliferation, SW620. It is filed as cell-based, Human. Particulars: Homo sapiens, SW-620; Table 18, FAK inhibitor based; SW620; read-out: IC50 inhibiting proliferation of tumor cells, SW620. The procedure, abridged: as §1
Another test relates to Hep3B2.7-1. Description: CCK-8 tumor cell proliferation, Hep3B2.7-1. It is filed as cell-based, Human. Particulars: Homo sapiens, HEP3B2.7-1, read-out: IC50 inhibiting proliferation of tumor cells, HEP3B2.7-1. As for the experimental part: as §2, §3
In a further test the test system is Kasumi-1. Description: CCK-8 tumor cell proliferation, Kasumi-1. The conditions noted are these: Homo sapiens, Kasumi-1, read-out: IC50 inhibiting proliferation of tumor cells, Kasumi-1. It is filed as cell-based, Human. The procedure, abridged:
as §1

Another test deals with MM.1S. The test can be described thus: CCK-8 tumor cell proliferation, MM.1S. It is filed as cell-based. Particulars: Homo sapiens, MM1.S, MM.1S, read-out: IC50 inhibiting proliferation of tumor cells, MM.1S. The procedure, abridged: as §1
For the next test, the system named is T47D. The test can be described thus: CCK-8 tumor cell proliferation, T47D. It is filed as cell-based, Human. Particulars: for IC50: Homo sapiens, T47D, read-out: IC50 inhibiting proliferation of tumor cells, T47D. As for the experimental part:
as §2, §3

The next test has as its system MM.1R. The test can be described thus: CCK-8 tumor cell proliferation, MM.1R. The conditions noted are these: read-out: IC50 inhibiting proliferation of tumor cells, MM.1R. It is filed as cell-based. The procedure, abridged:
as §1

The next test relates to Jurkat. Description: CCK-8 tumor cell proliferation, Jurkat. It is filed as cell-based, Human. The conditions noted are these: Homo sapiens, read-out: IC50 inhibiting proliferation of tumor cells, Jurkat. The procedure, abridged:
as §1

On to `CNC(=O)c1ccccc1Nc1cc(Nc2ccc(N3CCC(N4CCN(Cc5cc6c(cc5F)C(=O)N(C5CCC(=O)NC5=O)C6)CC4)CC3)cc2OC)ncc1C(F)(F)F` (centres unmarked) [GT-03596, 2-((2-((4-(4-(4-((2-(2,6-dioxopiperidin-3-yl)-6-fluoro-1-oxoisoindolin-5-yl)methyl)piperazin-1-yl)piperidin-1-yl)-2-methoxyphenyl)amino)-5-(trifluoromethyl)pyridin-4-yl)amino)-N-methylbenzamide], for which the IC50 lay within 100 to 500 nM with CCRF-CEM (Table 18, FAK inhibitor based); 500 to 1000 nM in the test with HGC-27; 500 to 1000 nM with MDA-MB-231; 50 to 100 nM in the test with SR; 1000 to 5000 nM with PC-9.
For the compound `CNC(=O)c1ccccc1Nc1cc(Nc2ccc(N3CCC(N4CCN(Cc5ccc6c(c5)CN(C5CCC(=O)NC5=O)C6=O)CC4)CC3)cc2OC)ncc1C(F)(F)F` (centres unmarked) [GT-03266, 2-((2-((4-(4-(4-((2-(2,6-dioxopiperidin-3-yl)-1-oxoisoindolin-5-yl)methyl)piperazin-1-yl)piperidin-1-yl)-2-methoxyphenyl)amino)-5-(trifluoromethyl)pyridin-4-yl)amino)-N-methylbenzamide], the IC50 in the test with CCRF-CEM (Table 18, FAK inhibitor based) fell in the range of 100 to 500 nM; with HGC-27 it was 500 to 1000 nM; in the test with MDA-MB-231, 100 to 500 nM; with SR it was 50 to 100 nM; with Mino, 1000 to 5000 nM; with SW620, 100 to 500 nM. The IC50 in the test with PC-9 was in the range of 100 to 500 nM.
`CNC(=O)c1ccccc1Nc1cc(Nc2ccc(N3CCC(NCc4ccc5c(c4)CN(C4CCC(=O)NC4=O)C5=O)CC3)cc2OC)ncc1C(F)(F)F` (centres unmarked) [GT-03213, 2-((2-((4-(4-(((2-(2,6-dioxopiperidin-3-yl)-1-oxoisoindolin-5-yl)methyl)amino)piperidin-1-yl)-2-methoxyphenyl)amino)-5-(trifluoromethyl)pyridin-4-yl)amino)-N-methylbenzamide]: the IC50 in the test on CCRF-CEM (Table 18, FAK inhibitor based) is 100 to 500 nM; in the test with HGC-27 it was 500 to 1000 nM; in the test with MDA-MB-231 it was less than 50 nM; in the test with SR it was less than 50 nM; in the test with SW620 it was 500 to 1000 nM; in the test with PC-9 it was 500 to 1000 nM.
Turning to `CNC(=O)c1ccccc1Nc1cc(Nc2ccc(N3CCOCC3)cc2OC)ncc1C(F)(F)F` [PND-1186, reference compound], the IC50 in the test on CCRF-CEM (Table 18, FAK inhibitor based) is 500 to 1000 nM; with HGC-27, 1000 to 5000 nM; in the test with MDA-MB-231, 1000 to 5000 nM; in the test on SR, 100 to 500 nM; in the test on Mino, 500 to 1000 nM; with SW620, less than 50 nM. In the test with PC-9, the IC50 lay within 500 to 1000 nM.
With `CNC(=O)c1ccccc1Nc1cc(Nc2ccc(N3CCC(N4CCN(Cc5ccc6c(c5F)CN(C5CCC(=O)NC5=O)C6=O)CC4)CC3)cc2OC)ncc1C(F)(F)F` (centres unmarked) [GT-03595, 2-((2-((4-(4-(4-((2-(2,6-dioxopiperidin-3-yl)-4-fluoro-1-oxoisoindolin-5-yl)methyl)piperazin-1-yl)piperidin-1-yl)-2-methoxyphenyl)amino)-5-(trifluoromethyl)pyridin-4-yl)amino)-N-methylbenzamide], the IC50 in the test on CCRF-CEM (Table 18, FAK inhibitor based) was 100 to 500 nM; in the test on HGC-27, 100 to 500 nM; in the test on MDA-MB-231, 100 to 500 nM; in the test with SR, less than 50 nM; in the test with PC-9, 500 to 1000 nM.
On to `O=C(Nc1cnn2ccc(N3CCC[C@@H]3c3cc(F)ccc3F)nc12)N1CC[C@H](O)C1` [larotrectinib], for which the IC50 with CCRF-CEM (Table 22, given as number) was greater than 10000 nM; in the test on Hep3B2.7-1 (Table 22, given as number), greater than 10000 nM; with Kasumi-1 (Table 22, given as number), greater than 10000 nM; in the test on MM.1S (Table 22, given as number), greater than 10000 nM; in the test with T47D (Table 22, given as number), greater than 10000 nM; in the test on MM.1R (Table 22, given as number), greater than 10000 nM. The IC50 in the test with Jurkat (Table 22, given as number) was greater than 10000 nM.
Turning to `O=C1CCC(N2Cc3cc(CN4CCN(c5cccc(-c6cnn7ccc(N8CCC[C@@H]8c8cc(F)ccc8F)nc67)n5)CC4)c(F)cc3C2=O)C(=O)N1` (stereo partly drawn) [GT-04264, 3-(5-((4-(6-(5-((R)-2-(2,5-difluorophenyl)pyrrolidin-1-yl)pyrazolo[1,5-a]pyrimidin-3-yl)pyridin-2-yl)piperazin-1-yl)methyl)-6-fluoro-1-oxoisoindolin-2-yl)piperidine-2,6-dione], the IC50 with CCRF-CEM (Table 22, NTRK inhibitor based) was less than 50 nM; in the test on Hep3B2.7-1 (Table 22, NTRK inhibitor based) it was less than 50 nM; with Kasumi-1 (Table 22, NTRK inhibitor based), less than 50 nM; with MM.1S (Table 22, NTRK inhibitor based), less than 50 nM; with T47D (Table 22, NTRK inhibitor based), less than 50 nM; in the test with MM.1R (Table 22, NTRK inhibitor based), less than 50 nM. In addition, the IC50 with Jurkat (Table 22, NTRK inhibitor based) is less than 50 nM.
On to `CN(CCOc1ccc(/C(=C(/CCCl)c2ccccc2)c2ccccc2)cc1)Cc1ccc2c(c1)CN(C1CCC(=O)NC1=O)C2=O` (centres unmarked) [GT-02970, (Z)-3-(5-(((2-(4-(4-chloro-1,2-diphenylbut-1-en-1-yl)phenoxy)ethyl)(methyl)amino)methyl)-1-oxoisoindolin-2-yl)piperidine-2,6-dione], for which the “IC50 for inhibiting the proliferation of tumor cells, T47D” value in the test on T47D (Table 8, designed based on ER inhibitors, 96 h) is reported as “A+”.
On to `CNC(=O)c1ccccc1Nc1cc(Nc2ccc(N3CCN(Cc4ccc5c(c4)CN(C4CCC(=O)NC4=O)C5=O)CC3)cc2OC)ncc1C(F)(F)F` (centres unmarked) [GT-03014, 2-((2-((4-(4-((2-(2,6-dioxopiperidin-3-yl)-1-oxoisoindolin-5-yl)methyl)piperazin-1-yl)-2-methoxyphenyl)amino)-5-(trifluoromethyl)pyridin-4-yl)amino)-N-methylbenzamide], for which the IC50 with CCRF-CEM (Table 18, FAK inhibitor based) is less than 50 nM; in the test on HGC-27 it was 1000 to 5000 nM; in the test with MDA-MB-231 it was 50 to 100 nM; in the test on SR, 100 to 500 nM; in the test on Mino, less than 50 nM; in the test with SW620, less than 50 nM. Moreover, the IC50 with PC-9 was 1000 to 5000 nM.
For the compound `O=C1CCC(N2Cc3cc(CN4CCN(c5cccc(-c6cnc7ccc(N8CCC[C@@H]8c8cccc(F)c8)nn67)n5)CC4)cc(F)c3C2=O)C(=O)N1` (stereo partly drawn) [GT-03867, 3-(7-fluoro-5-((4-(6-(6-((R)-2-(3-fluorophenyl)pyrrolidin-1-yl)imidazo[1,2-b]pyridazin-3-yl)pyridin-2-yl)piperazin-1-yl)methyl)-1-oxoisoindolin-2-yl)piperidine-2,6-dione], the IC50 in the test on CCRF-CEM (Table 22, NTRK inhibitor based) is less than 50 nM; in the test on Hep3B2.7-1 (Table 22, NTRK inhibitor based), less than 50 nM; in the test with Kasumi-1 (Table 22, NTRK inhibitor based), less than 50 nM; with MM.1S (Table 22, NTRK inhibitor based), 50 to 100 nM; in the test with T47D (Table 22, NTRK inhibitor based), 100 to 500 nM; with MM.1R (Table 22, NTRK inhibitor based) it was less than 50 nM. Moreover, the IC50 with Jurkat (Table 22, NTRK inhibitor based) was less than 50 nM.
